# Where a SMILES comes first, the peptide text is derived from it. Bridges are numbered along the chain shown (N, C = ends). Where no end group is shown, it is not given here.
# Legend:
# [1] = target: T1, insulin degrading enzyme (IDE) (Rattus norvegicus, UniProt P35559); assay: Sensitivity towards proteolytic degradation by IDE (activity on receptor cell line after incubation); type: in vitro ADME; settings: 4 hours, 37° C., 0.6 μg/ml IDE
# T1 construct: purchased Merck 407241-50UG
# T1 sequence (P35559 1-1019): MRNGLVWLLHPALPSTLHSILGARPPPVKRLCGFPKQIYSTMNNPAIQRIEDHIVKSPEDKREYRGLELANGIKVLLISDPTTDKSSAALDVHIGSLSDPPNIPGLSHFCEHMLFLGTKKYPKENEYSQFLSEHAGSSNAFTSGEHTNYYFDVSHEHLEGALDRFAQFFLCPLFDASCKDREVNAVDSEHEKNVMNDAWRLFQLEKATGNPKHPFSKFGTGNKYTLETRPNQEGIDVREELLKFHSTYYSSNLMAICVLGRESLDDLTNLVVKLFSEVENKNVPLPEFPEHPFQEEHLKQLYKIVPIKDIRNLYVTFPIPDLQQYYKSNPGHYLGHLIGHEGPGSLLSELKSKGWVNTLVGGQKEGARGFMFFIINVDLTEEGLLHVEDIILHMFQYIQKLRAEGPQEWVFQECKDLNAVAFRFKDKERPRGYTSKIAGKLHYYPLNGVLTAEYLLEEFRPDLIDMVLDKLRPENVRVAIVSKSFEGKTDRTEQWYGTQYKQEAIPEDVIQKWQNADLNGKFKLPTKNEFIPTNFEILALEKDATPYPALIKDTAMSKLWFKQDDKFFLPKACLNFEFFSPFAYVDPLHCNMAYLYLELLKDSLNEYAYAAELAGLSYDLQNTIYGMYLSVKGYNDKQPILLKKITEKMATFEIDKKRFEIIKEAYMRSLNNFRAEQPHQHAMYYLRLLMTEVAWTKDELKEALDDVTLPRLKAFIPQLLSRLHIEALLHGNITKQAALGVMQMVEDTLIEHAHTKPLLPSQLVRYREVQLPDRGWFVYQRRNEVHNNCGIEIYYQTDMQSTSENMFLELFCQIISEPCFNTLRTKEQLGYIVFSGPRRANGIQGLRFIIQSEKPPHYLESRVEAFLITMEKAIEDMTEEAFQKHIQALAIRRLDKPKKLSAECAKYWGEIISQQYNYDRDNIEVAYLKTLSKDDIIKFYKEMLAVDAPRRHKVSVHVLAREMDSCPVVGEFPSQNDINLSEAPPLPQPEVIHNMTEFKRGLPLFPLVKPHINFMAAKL
# [2] = system: spontaneously hypertensive rats; assay: Blood pressure by radiotelemetry in conscious spontaneously hypertensive rats; type: in vivo, rat; parameters: drop in mean arterial blood pressure (MAP): dose or concentration left out as unconfirmed; settings: intraperitoneal
# Experimental: Female spontaneously hypertensive rats (SHR/N Crl BR, Charles River) with a body weight of 210-300 g were used for these studies. All animals were housed in individual cages at 22-24° C. ambient temperature and maintained on a 12-hour light/dark cycle with free access to standard laboratory rat chow and water ad libitum. Telemeter (HD-10, DSI) implantation was performed a minimum of 14 days before animals were used for blood pressure measurements. Surgery was performed under aseptic conditions. After shaving the abdominal wall, a midline abdominal incision was made, and the fluid-filled sensor catheter was inserted upstream into the exposed descending aorta between the iliac bifurcation and the renal arteries. According to the DSI guidelines the tip of the telemetric catheter was located caudal to the renal arteries and secured by tissue adhesive. The transmitter body was affixed to the inner peritoneal wall before closure of the abdomen. […] Data are expressed as % of basal values±SEM of at least 4 animals per group. The basal value for each animal was calculated as the average of the values measured in two hours prior to substance application (7:00-9:00 AM). Data are then expressed as averages every half hour, starting 15 minutes post application. […]
# [3] = system: PE-contracted aortic rings; assay: Vasorelaxation of isolated rat aortic rings contracted by phenylephrine
# Experimental: All experiments were conducted in accordance with institutional guidelines and approved by the local committee on animal experiments. Male Sprague-Dawley rats (weighing 250-300 g) were anesthetized with pentobarbital sodium (40 mg/kg i.p.), killed by decapitation, and exsanguinated. The thoracic aorta was excised and placed in ice-cold Krebs buffer of the following composition: 130 mM NaCl, 14.9 mM NaHCO3, 5.5 mM dextrose, 4.7 mM KCl, 1.18 mM KH2PO4, 1.17 mM MgSO47H2O, and 1.6 mM CaCl22H2O. The vessel was pinned in a Sylgard Petri dish filled with chilled Krebs' solution, cleaned of fat and connective tissue, and cut into ring segments of approximately 3 to 4 mm in length. […] Changes in isometric force were recorded using a PowerLab data acquisition system (software Lab Chart 7.0)
# After the equilibration period, aortic rings were challenged with 80 mM KCl to check tissue viability. Next, the endothelial integrity of the preparations was determined by verifying the responsiveness to acetylcholine (ACh, 1 μM) in vessels pre-contracted with Phenylephrine (PE, 1 μM). After wash-out and a period of equilibration, Phenylephrine (PE, 1 μM) was used to induce contraction, thereafter natriuretic peptides and natriuretic peptide engrafted IgGs were evaluated for vasorelaxation.
# [4] = target: T2, rat BNP receptor (NPR-A) (Rattus norvegicus, UniProt P18910); assay: Fluorescence-based rat BNP receptor (NPR-A) GCaMP6 reporter cell line
# T2 construct: expressed in transfected cells; host or cells: CHO cell line stably expressing GCaMP6, co-transfected with CNGA2 and rat NPR-A
# T2 sequence (P18910 29-1057): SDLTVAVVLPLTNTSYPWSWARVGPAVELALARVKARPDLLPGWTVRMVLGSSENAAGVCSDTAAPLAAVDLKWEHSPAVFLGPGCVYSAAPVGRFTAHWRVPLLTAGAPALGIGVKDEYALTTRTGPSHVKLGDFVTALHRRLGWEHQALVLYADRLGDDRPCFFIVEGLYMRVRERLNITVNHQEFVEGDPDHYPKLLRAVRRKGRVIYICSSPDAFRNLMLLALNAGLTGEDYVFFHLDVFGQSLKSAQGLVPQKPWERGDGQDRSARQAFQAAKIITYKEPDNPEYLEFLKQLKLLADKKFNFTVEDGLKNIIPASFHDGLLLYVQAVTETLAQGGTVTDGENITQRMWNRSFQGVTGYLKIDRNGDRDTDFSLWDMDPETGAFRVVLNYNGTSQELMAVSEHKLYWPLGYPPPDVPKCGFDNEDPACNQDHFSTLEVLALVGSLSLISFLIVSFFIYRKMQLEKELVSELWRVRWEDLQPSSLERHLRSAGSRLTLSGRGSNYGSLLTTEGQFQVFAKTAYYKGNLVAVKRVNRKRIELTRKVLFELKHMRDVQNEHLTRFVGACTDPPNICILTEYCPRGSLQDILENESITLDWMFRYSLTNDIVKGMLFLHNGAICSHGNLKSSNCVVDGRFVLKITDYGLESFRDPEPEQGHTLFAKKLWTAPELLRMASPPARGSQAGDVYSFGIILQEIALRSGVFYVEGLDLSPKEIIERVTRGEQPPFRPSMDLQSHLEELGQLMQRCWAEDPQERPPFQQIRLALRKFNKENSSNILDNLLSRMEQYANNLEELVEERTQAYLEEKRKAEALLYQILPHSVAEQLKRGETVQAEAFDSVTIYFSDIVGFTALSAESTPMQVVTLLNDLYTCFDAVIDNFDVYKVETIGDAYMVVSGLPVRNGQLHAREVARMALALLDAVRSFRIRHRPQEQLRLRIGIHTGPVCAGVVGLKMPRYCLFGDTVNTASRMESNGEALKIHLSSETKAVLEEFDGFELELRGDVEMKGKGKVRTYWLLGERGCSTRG
# From the text: Activity data of BNP engrafted antibodies in NPR-A receptor cell line A luminescence-based rat BNP receptor (NPR-A) cell line was generated as described previously (Wunder et al. (2013), Eur J Pharmacol. 698: 131). Accordingly, a fluorescence-based rat BNP receptor (NPR-A) cell line was generated by co-transfecting a CHO cell line, stably expressing the fluorescent calcium sensor protein GCaMP6, with plasmid constructs encoding CNGA2 (cGMP biosensor) and rat NPR-A.
# BNP receptor GCaMP6 cells were cultured for one day on black, clear-bottom 384-well microtiter plates (2500 cells/well). After removal of the cell culture medium reporter cells were loaded for 20 min with Tyrode (130 mM NaCl, 5 mM KCl, 2 mM CaCl2, 20 mM HEPES, 1 mM MgCl2, 4.8 mM NaHCO3 at pH 7.4) containing a black masking dye at 37° C. and 5% CO2. IBMX (0.2 mM) was used to prevent cGMP degradation by endogenous phosphodiesterases.
# Fluorescence measurements (3 min, kinetic mode) were directly started upon agonist addition. Receptor ligands were added in Tyrode containing a black masking dye and 0.1% BSA. Measurements were done on a FLIPR Tetra®.
# [5] = target: T3, neutral endopeptidase (NEP) (Homo sapiens, UniProt P08473); assay: Sensitivity towards proteolytic degradation by NEP (activity on receptor cell line after incubation); type: in vitro ADME; settings: 4 hours, 37° C., 0.6 μg/ml NEP
# T3 construct: purchased R&D Systems 1182-ZNC
# T3 sequence (P08473 whole entry): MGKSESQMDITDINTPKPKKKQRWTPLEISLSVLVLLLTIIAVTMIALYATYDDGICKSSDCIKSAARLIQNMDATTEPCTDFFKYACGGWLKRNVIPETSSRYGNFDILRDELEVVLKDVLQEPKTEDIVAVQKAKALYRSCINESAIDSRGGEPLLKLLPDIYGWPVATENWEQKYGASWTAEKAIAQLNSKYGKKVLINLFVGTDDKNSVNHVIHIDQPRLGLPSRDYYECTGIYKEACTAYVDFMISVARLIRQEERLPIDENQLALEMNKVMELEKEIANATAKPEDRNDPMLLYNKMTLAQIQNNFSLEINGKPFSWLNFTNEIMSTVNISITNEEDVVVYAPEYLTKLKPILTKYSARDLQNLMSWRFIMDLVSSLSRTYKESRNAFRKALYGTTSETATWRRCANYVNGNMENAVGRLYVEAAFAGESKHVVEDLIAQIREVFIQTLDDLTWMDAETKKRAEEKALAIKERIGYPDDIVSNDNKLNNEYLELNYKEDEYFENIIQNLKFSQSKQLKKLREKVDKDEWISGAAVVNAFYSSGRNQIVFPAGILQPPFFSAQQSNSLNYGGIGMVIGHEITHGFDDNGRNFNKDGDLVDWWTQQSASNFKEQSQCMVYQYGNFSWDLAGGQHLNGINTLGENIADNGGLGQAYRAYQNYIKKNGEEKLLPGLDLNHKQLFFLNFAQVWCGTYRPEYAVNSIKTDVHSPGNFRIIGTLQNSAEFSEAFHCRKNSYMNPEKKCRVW
Compound,sensitivity/resistance to proteolytic degradation by IDE [1],drop in mean arterial blood pressure (MAP) [2],duration of effect on MAP ([2]; 500 g dose) [h],vasodilation in PE-contracted aortic rings [3],"Potency (log EC50 values), vasodilation ([3]; endothelium-intact rat aortic rings contracted by phenylephrine (1 μM))",EC50 [4] [nM],sensitivity/resistance to proteolytic degradation by NEP [5]
"CC[C@H](C)[C@@H]1NC(=O)[C@H](CCCNC(=N)N)NC(=O)[C@H](CC(=O)O)NC(=O)[C@H](CCSC)NC(=O)[C@H](CCCNC(=N)N)NC(=O)CNC(=O)CNC(=O)[C@H](Cc2ccccc2)NC(=O)[C@@H](NC(=O)[C@H](CO)NC(=O)[C@H](CO)NC(=O)[C@H](CCCNC(=N)N)NC(=O)[C@H](CCCNC(=N)N)NC(=O)[C@H](CC(C)C)NC(=O)[C@@H](N)CO)CSSC[C@@H](C(=O)N[C@@H](CC(N)=O)C(=O)N[C@@H](CO)C(=O)N[C@@H](Cc2ccccc2)C(=O)N[C@@H](CCCNC(=N)N)C(=O)N[C@@H](Cc2ccc(O)cc2)C(=O)O)NC(=O)CNC(=O)[C@H](CC(C)C)NC(=O)CNC(=O)[C@H](CO)NC(=O)[C@H](CCC(N)=O)NC(=O)[C@H](C)NC(=O)CNC1=O [ANP, reference compound]",high sensitivity,–,–,–,–,–,–
"ANP peptide: Rat ANP peptide (ADH-GM-10057T, Santai Labs) used as a reference (SLRRSSCFGGRIDRIGAQSGLGCNSFRY; disulfide 7-23; UniProt P01161 123-150, looked up) [reference compound]",–,approximately 25%,6 to 8,dose-dependent vasodilation,−7.4,–,–
"CC[C@H](C)[C@@H]1NC(=O)[C@H](CCCNC(=N)N)NC(=O)[C@H](CC(=O)O)NC(=O)[C@H]([C@@H](C)CC)NC(=O)[C@H](CCCCN)NC(=O)[C@H](CCC(N)=O)NC(=O)CNC(=O)[C@H](Cc2ccccc2)NC(=O)[C@@H](NC(=O)[C@H](CO)NC(=O)[C@H](CO)NC(=O)[C@H](CO)NC(=O)[C@H](Cc2c[nH]cn2)NC(=O)[C@H](C)NC(=O)[C@H](CCSC)NC(=O)[C@H](CCCCN)NC(=O)[C@H](CO)NC(=O)[C@@H](N)CC(N)=O)CSSC[C@@H](C(=O)N[C@@H](CC(=O)O)C(=O)NCC(=O)N[C@@H](CC(C)C)C(=O)N[C@@H](CCCNC(=N)N)C(=O)N[C@@H](CC(C)C)C(=O)N[C@@H](Cc2ccccc2)C(=O)O)NC(=O)CNC(=O)[C@H](CC(C)C)NC(=O)[C@H](CCCNC(=N)N)NC(=O)[C@H](CO)NC(=O)[C@H](C(C)C)NC(=O)[C@H](C)NC(=O)CNC1=O [BNP, reference compound] (H-NSKMAHSSSCFGQKIDRIGAVSRLGCDGLRLF-OH; disulfide 10-26; N-terminus and C-terminus assumed)",high sensitivity,–,–,–,–,2.9,high sensitivity

# — patent US20250236654A1, “C-TYPE NATRIURETIC PEPTIDE ENGRAFTED ANTIBODIES” (Bayer Aktiengesellschaft, priority 2018, published 2025)
